Assay results reported in US20060039887A1, “Cosmetic or pharmaceutical composition for skin care” (Infinity2 Health Sciences, Inc., priority 2004, published 2006).
Values belong to the molecule of their own block, whether it stands above or below them.

Key:
[1] = pH of 1 wt % solution in water; format: physicochemical; settings: 1 wt % (1%) water solution
[2] = stability of water solution; format: physicochemical
[3] = from water solutions
[4] = Stability of Cu-ATP solution, Hunter Lab L*a*b* color readings; format: physicochemical; parameters: key to color reading "L": L* lightness: 100 = white to 0 = black; key to color reading "a": a*: negative = greener, positive = redder; key to color reading "b": b*: negative = bluer, positive = yellower; settings: full light, ambient room temperature
Text: It should be noted that, where relevant, composition ingredients and the like are provided in weight percentages. Further, where applicable, color measurements were done on a Hunter Lab color meter. This color meter measures color on a scale defined as L*a*b* scale. The term “L” is from 100 to 0, representing white and black colors (lightness and darkness), respectively. A (−) value of “a” indicates a more green color. A (+) value of “a” indicates a more red color. A (−) value of “b” indicates a more blue color. A (+) value of “b” indicates a more yellow color. Various numeric values of “a” and “b” indicate degree of respective colors. Mixed colors are thus indicated by a mixed value of L*a*b* as will be noted in various examples below. The materials used had the following properties. Adenosine triphosphate disodium hydrate (molecular weight 551 Da), glutathione (molecular weight 307 Da), copper gluconate (molecular weight 453 Da, Cu=14%), copper amino acid chelate (copper 12%), fructose-1,6-diphosphate dicalcium (molecular weight 416 Da), zinc gluconate (molecular weight 455 Da, Zn=1 4%), manganese gluconate (molecular weight 445 Da, Mn=12%). The analysis of trace metals quoted in ppm in various examples, as noted below, are within +-10%.
The solution “C” obtained in Example 2 was stored in a beaker with a plastic film wrapped over it. The solution was stored in full light (fluorescent lamps) under ambient room temperature conditions. The color readings were measured periodically, and any visually observed discolorations, or precipitate formations, if any, were also recorded, as noted below.

Molecule: Nc1ncnc2c1ncn2[C@@H]1O[C@H](COP(=O)(O)OP(=O)(O)OP(=O)(O)O)[C@@H](O)[C@H]1O [ATP, adenosine triphosphate]
pH of 1 wt % solution in water [1]: 2.0

pH of 1 wt % solution in water [1]: 3.7 | stability of water solution [2]: good | absorption into skin [3]: rapidly absorbed
Molecule: NC(=O)c1cccnc1.O=C1O[C@H]([C@@H](O)CO)C(O)=C1O [Niacinamide ascorbate]

pH of 1 wt % solution in water [1]: 2.6 | stability of water solution [2]: poor
Molecule: O=C1O[C@H]([C@@H](O)CO)C(O)=C1O [ascorbic acid]

Molecule: O=C(O)[C@H](O)[C@@H](O)[C@H](O)[C@H](O)CO [gluconic acid]
pH of 1 wt % solution in water [1]: 2.5

pH of 1 wt % solution in water [1]: 6.3 | stability of water solution [2]: good
Molecule: NC(=O)c1cccnc1 [niacinamide]

color reading "L" ([4]; 1 Week): 51.35 | color reading "a" ([4]; 1 Week): −35.38 | color reading "b" ([4]; 1 Week): −5.16 | color reading "L" ([4]; 4 Weeks): 50.54 | color reading "a" ([4]; 4 Weeks): −36.08 | color reading "b" ([4]; 4 Weeks): −5.56 | color reading "L" ([4]; Initial): 53.52 | color reading "a" ([4]; Initial): −33.58 | color reading "b" ([4]; Initial): −4.19
Molecule: Copper ATP [Cu-ATP Solution]
